US8598179B2, “Pyrazole-carboxamide derivatives as P2Y12 antagonists” (Sanofi, priority 2007, dated 2013)
pIC50: −log10 of the molar value.

Key:
[1] = system: human platelet rich plasma (ADP-induced platelet aggregation); test: Inhibition of human platelet aggregation, "Born"-method (single cuvettes); type: cell-based; settings: 0.1 h, aggregation induced by ADP, single use cuvettes, platelet aggregation profiler, 6 minutes at 37° C.
Description: (§1) Inhibition of Human Platelet Aggregation
(§2) Alternatively to a binding assay which measures a compound's ability to bind to the P2Y12 receptor, the effect on cellular function was also determined. This ability of the compound was evaluated in two platelet aggregation assays: in 96-well plates and with the “Born”-method using single cuvettes.
(§3) Whole blood was collected from healthy volunteers using 20 ml syringes containing 2 ml of buffered Citrate. The anticoagulated whole blood was transferred into 15 ml polypropylene conical tubes (10 ml per tube). The tubes were centrifuged for 15 minutes at 340×g at RT without using the centrifuge brake. This procedure leads to a pellet of cellular components and a supernatant of platelet rich plasma (PRP). The PRP layer was collected from each tube and pooled for each donor. To avoid carry over of cellular components following centrifugation, approximately 5 ml of PRP was left in the tube. The platelet concentration was determined using a Coulter Counter.
(§4) The 15 ml tubes containing the pellet of cellular components were centrifuged again for 10 minutes at 1940×g. This pelleted out most particulate blood constituents remaining, leaving a layer of Platelet Poor Plasma (PPP). The PPP was collected for each donor. The PRP layer, previously set aside, was diluted with PPP to a final concentration of approximately 3×E8 platelets/ml with the PPP.
The human platelet aggregation assay is performed in single use cuvettes using the platelet aggregation profiler (PAP-4 or -8, Bio/Data corporation).
In the assay cuvette 4 μl of test compound at 100× final concentration in DMSO is mixed with 392 μl fresh PRP and incubated for 2 minutes at 37° C. with 1.200 rpm stirring. Following that incubation period, 4 μl of 250 μM ADP is added to the reaction mix. […] After that aggregation is measured over 6 minutes at 37° C. with 1.200 rpm stirring. Results of the assay are expressed as % inhibition, and are calculated using maximum aggregation (Tmax) or area under curve (AUC) of the absorbance over 6 minutes. […]

[2] = system: human platelet rich plasma (ADP-induced platelet aggregation); test: Inhibition of human platelet aggregation, 96-well assay; type: cell-based; settings: 20 min, aggregation induced by ADP, 96-well plates, AUC of absorbance over 20 minutes
Description: as §1, §2
as §3, with “ACD-A Aqua-Citrat-Dextrose-A, Fresenius).” for “buffered Citrate.”, “150×g” for “340×g”
as §4
The human platelet aggregation assay is performed in 96-well plates using a microtiter plate reader (SpectraMax Plus 384 with SoftMax Pro software from Molecular Devices). In the plate 15 μl of test compound at 10× final concentration in NaCl is mixed with 120 μl fresh PRP and incubated for 5 minutes. Following that incubation period, 15 μl of 40 μM ADP is added to the reaction mix. This addition of ADP is sufficient to induce aggregation in the absence of an inhibitor. The plates are then transferred to the microplate reader and aggregation is measured over 20 minutes. The instrument settings include: Absorbance at 650 nm, run time 20 minutes with readings in 1-minute intervals and 50 seconds shaking between readings all performed at 37° C. Results of the assay are expressed as % inhibition, and are calculated using area under curve (AUC) of the absorbance over 20 minutes.
The IC50 data of the above described platelet aggregation 96-well assay using human platelet rich plasma for exemplary compounds of the present invention are shown in table 2.

human P2Y12 receptor = molecular target: T1, human P2Y12 receptor (Homo sapiens, UniProt Q9H244); test: Human P2Y12 recombinant cell membrane binding assay; settings: competition against 33P 2MeS-ADP; CHO cell membranes with recombinant human P2Y12 receptor
T1 construct: expressed in transfected cells; host or cells: CHO cells (membrane preparation)
Description: The ability of the compounds of the formula I to inhibit the P2Y12 receptor can be assessed by determining the concentration of the compound of the formula I that binds to the human P2Y12 Recombinant Cell Membrane Binding Assay with 33P 2MeS-ADP.
Human P2Y12 Recombinant Cell Membrane Binding Assay
The ability of a test compound to bind to the P2Y12 receptor was evaluated in a recombinant cell membrane binding assay. In this competitive binding assay, the test compound competed against a radiolabeled agonist for binding to the P2Y12 receptor, expressed on the cell membrane. Inhibition of binding of the labeled material was measured and correlated to the amount and potency of the test compound. This binding assay is a modification of the procedure described by Takasaki, J. et. al, Mol. Pharmacol., 2001, Vol. 60, pg. 432.
As source of P2Y12, a membrane preparation was prepared from Chinese Hamster Ovary (CHO) cells with recombinant expression of the human P2Y12 receptor according to standard procedures.
To a 96-well microtiterplate the following were added: a) 24 μl of assay buffer (10 mM HEPES, 138 mM NaCl, […] KCl, 12 mM NaHCO3, 1 mM EDTA-Na, 0.1% BSA, pH 7.4) b) 1 μL compound in DMSO c) 50 μL P2Y12 CHO membrane (20 μg/ml) and after 15 min at RT d) 25 μL of 1.61 nM 33P 2MeS-ADP (Perkin Elmer NEN custom synthesis, specific activity ˜2100Ci/mmol) made in assay buffer.
After 20 min incubation at RT samples were transferred to 96-well microtiter filterplates (Millipore HTS GF/B), pre-wetted for 20 min with 300 μL of stop buffer (10 mM HEPES, 138 mM NaCl pH 7.4) and then filtered through completely with a Millipore plate vacuum. Next, wells were washed four times with 400 μl/well of stop buffer on a plate vacuum. The plate was disassembled and allowed to air dry overnight with the filter side up over night. The filter plates were snapped into adapter plates and 0.1 mL of Microscint 20 Scintillation Fluid (Perkin Elmer #6013621) was added to each well. The top of the filterplate was sealed with plastic plate covers. The sealed filterplate were incubated 2 hours at RT. A Microbeta Scintillation Counter was used to measure counts. The binding of compound is expressed as a % inhibition of specific binding, defined by subtraction of the background with 1 mM ADP.
Compounds were diluted as 10 mM DMSO stocks and tested in a four-point, five-fold dilution series run in triplicate beginning at 10 μM, final concentration. Data were analyzed using a four-parameter curve fit with a fixed minimum and maximum experimentally defined as the average positive and negative controls on each plate. The IC50 data of the above described human P2Y12 recombinant cell membrane binding assay for exemplary compounds of the present invention are shown in table 1.

T1 sequence (Q9H244 whole entry): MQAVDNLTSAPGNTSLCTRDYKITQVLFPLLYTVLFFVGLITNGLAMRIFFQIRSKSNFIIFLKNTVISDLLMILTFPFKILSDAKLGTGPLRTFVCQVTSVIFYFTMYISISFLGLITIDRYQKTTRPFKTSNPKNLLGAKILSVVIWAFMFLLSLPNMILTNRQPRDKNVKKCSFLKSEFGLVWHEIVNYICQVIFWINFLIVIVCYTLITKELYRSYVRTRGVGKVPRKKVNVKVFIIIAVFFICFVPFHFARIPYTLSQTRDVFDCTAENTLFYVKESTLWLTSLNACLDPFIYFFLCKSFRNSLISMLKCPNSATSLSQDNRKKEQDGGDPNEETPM

Row | Structure (SMILES) | pIC50 [1] | pIC50 [2] | other results
1 | CCOC(=O)N1CCN(C(=O)[C@H](CCC(=O)O)NC(=O)c2cc(OC3(C(=O)OCC)CCC3)n(-c3ccccc3)n2)CC1 [Example 1, 4-((S)-4-Carboxy-2-{[5-(1-ethoxycarbonyl-cyclobutoxy)-1-phenyl-1H-pyrazole-3-carbonyl]-amino}-butyryl)-piperazine-1-carboxylic acid ethyl ester] | 5.53 |  | 
2 | CCOC(=O)COc1cc(C(=O)N[C@@H](CCC(=O)O)C(=O)N2CCN(C(=O)OCC)CC2)nn1-c1ccccc1 [Example 5, 4-{(S)-4-Carboxy-2-[(5-ethoxycarbonylmethoxy-1-phenyl-1H-pyrazole-3-carbonyl)-amino]-butyryl}-piperazine-1-carboxylic acid ethyl ester] | 5.61 |  | 
3 | CCOC(=O)N1CCN(C(=O)[C@H](CCC(=O)O)NC(=O)c2cc(OCC(=O)C(C)(C)C)n(-c3ccccc3)n2)CC1 [Example 80, 4-((S)-4-Carboxy-2-{[5-(3,3-dimethyl-2-oxo-butoxy)-1-phenyl-1H-pyrazole-3-carbonyl]-amino}-butyryl)-piperazine-1-carboxylic acid ethyl ester] | 5.61 |  | 
4 | CCOC(=O)N1CCN(C(=O)[C@H](CCC(=O)O)NC(=O)c2cc(OCC(=O)C3CC3)n(-c3ccccc3)n2)CC1 [Example 96, 4-((S)-4-Carboxy-2-{[5-(2-cyclopropyl-2-oxo-ethoxy)-1-phenyl-1H-pyrazole-3-carbonyl]-amino}-butyryl)-piperazine-1-carboxylic acid ethyl ester] |  | 5.59 | 
5 | CCOC(=O)N1CCN(C(=O)[C@H](CCC(=O)O)NC(=O)c2cc(OCC(=O)N[C@@H](C)C(=O)O)n(-c3ccccc3)n2)CC1 [Example 138, 4-[(S)-4-Carboxy-2-({5-[((S)-1-carboxy-ethylcarbamoyl)-methoxy]-1-phenyl-1H-pyrazole-3-carbonyl}-amino)-butyryl]-piperazine-1-carboxylic acid ethyl ester] |  | 5.83 | 
6 | CCOC(=O)N1CCN(C(=O)[C@H](CCC(=O)O)NC(=O)c2cc(OCC(=O)N[C@H](C)C(=O)O)n(-c3ccccc3)n2)CC1 [Example 139, 4-[(S)-4-Carboxy-2-({5-[((R)-1-carboxy-ethylcarbamoyl)-methoxy]-1-phenyl-1H-pyrazole-3-carbonyl}-amino)-butyryl]-piperazine-1-carboxylic acid ethyl ester] |  | 5.73 | 
7 | CCOC(=O)N1CCN(C(=O)[C@H](CC(=O)NS(C)(=O)=O)NC(=O)c2cc(OCC(=O)C(C)(C)C)n(-c3ccccc3)n2)CC1 [Example 164, 4-((S)-2-{[5-(3,3-Dimethyl-2-oxo-butoxy)-1-phenyl-1H-pyrazole-3-carbonyl]-amino}-4-methanesulfonylamino-4-oxo-butyryl)-piperazine-1-carboxylic acid ethyl ester] |  |  | pIC50 (human P2Y12 receptor): 5.80
8 | CCOC(=O)N1CCN(C(=O)[C@H](CCC(=O)O)NC(=O)c2cc(OCC(=O)NC3(C(=O)NC4CCC4)CCC3)n(-c3ccccc3)n2)CC1 [Example 167, 4-{(S)-4-Carboxy-2-[(5-{[1-(cyclobutyl-carbamoyl)-cyclobutylcarbamoyl]-methoxy}-1-phenyl-1H-pyrazole-3-carbonyl)-amino]-butyryl}-piperazine-1-carboxylic acid ethyl ester] |  | 5.66 | 
